US5760276A, “Aryl-and heteroarylcyclohexenyl substituted alkenes having retinoid agonist, antagonist or inverse agonist type biological activity” (Allergan, priority 1997, dated 1998)

Tests used:
RARγ -VP-16 = experiment: Retinoid inverse agonist assay: inhibition of basal luciferase activity of RARγ-VP-16 chimeric receptor in cotransfected CV-1 cells; type: cell-based; conditions: CV-1 cells cotransfected with RARγ -VP-16, ER-RXRα chimeric receptor and ERE-tk-Luc reporter
From the text: Inverse agonists are ligands that are capable of inhibiting the basal receptor activity of unliganded receptors. […] Moreover, the biological effects associated with retinoid inverse agonists are distinct from those of retinoid agonists or antagonists. For example, RAR inverse agonists, but not RAR neutral antagonists, cause a dose-dependent inhibition of the protein MRP-8 in cultured human keratinocytes differentiated with serum. MRP-8 is a specific marker of cell differentiation, which is also highly expressed in psoriatic epidermis, but is not detectable in normal human skin. Thus, retinoid inverse agonists may offer a unique way of treating diseases such as psoriasis.
The activity of retinoid inverse agonists can be tested by the procedure of Klein et al. J. Biol. Chem. 271, 22692-22696 (1996) which is expressly incorporated herein by reference.
In this assay, retinoid inverse agonists are able to repress the basal activity of a […] -VP-16 chimeric receptor where the constituitively active domain of the herpes simplex virus (HSV) VP-16 is fused to the N-terminus of RARγ. […] Retinoid inverse agonists are able to inhibit the basal luciferase activity in these cells in a dose dependent manner and IC50 s measured.

RARβ = target: T1, RARβ (Homo sapiens, UniProt P10826); experiment: Ligand binding assay, RARβ
T1 sequence (P10826 1-455): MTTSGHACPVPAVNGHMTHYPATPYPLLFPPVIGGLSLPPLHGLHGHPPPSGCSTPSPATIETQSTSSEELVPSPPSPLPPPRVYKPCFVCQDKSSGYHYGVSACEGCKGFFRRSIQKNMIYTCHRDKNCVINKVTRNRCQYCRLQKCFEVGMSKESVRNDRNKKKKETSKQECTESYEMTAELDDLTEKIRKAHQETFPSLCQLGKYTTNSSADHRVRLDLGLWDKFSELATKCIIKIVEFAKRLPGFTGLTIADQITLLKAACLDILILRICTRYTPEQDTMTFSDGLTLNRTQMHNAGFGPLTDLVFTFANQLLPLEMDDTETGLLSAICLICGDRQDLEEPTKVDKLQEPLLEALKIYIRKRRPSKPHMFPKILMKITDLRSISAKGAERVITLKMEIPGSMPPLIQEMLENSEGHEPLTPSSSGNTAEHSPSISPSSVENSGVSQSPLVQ
From the text: (§1) Other assays described below, measure the ability of the compounds of the present invention to bind to, and/or activate various retinoid receptor subtypes. When in these assays a compound binds to a given receptor subtype and activates the transcription of a reporter gene through that subtype, then the compound is considered an agonist of that receptor subtype. […] In the below described assays the ability of the compounds to bind to RARα, RARβ, RARγ, RXRα, RXRβ and RXRγ receptors, and the ability or inability of the compounds to activate transcription of a reporter gene through these receptor subtypes can be tested.
(§2) A holoreceptor transactivation assay and a ligand binding assay which measure the antagonist/agonist like activity of the compounds of the invention, or their ability to bind to the several retinoid receptor subtypes, respectively, are described in published PCT Application No. WO WO93/11755 (particularly on pages 30-33 and 37-41) published on Jun. 24, 1993, the specification of which is also incorporated herein by reference. A description of the holoreceptor transactivation assay is also provided below.
(§3) CV1 cells (5,000 cells/well) were transfected with an RAR reporter plasmid MTV-TREp-LUC (50 ng) along with one of the RAR expression vectors (10 ng) in an automated 96-well format by the calcium phosphate procedure of Heyman et al. Cell 68, 397-406, (1992). For RXRα and RXRγ transactivation assays, an RXR-responsive reporter plasmid CRBPII-tk-LUC (50 ng) along with the appropriate RXR expression vectors (10 ng) was used substantially as described by Heyman et al. above, and Allegretto et al. J. Biol. Chem. 268, 26625-26633. For RXRβ transactivation assays, an RXR-responsive reporter plasmid CPRE-tk-LUC ([…]) along with RXRβ expression vector ([…]) was used as described in above. These reporters contain DRI elements from human CRBPII and certain DRI elements from promoter, respectively. (see Mangelsdorf et al. The Retinoids: Biology, Chemistry and Medicine, pp 319-349, Raven Press Ltd., New York and Heyman et al., cited above) (1, 8). A β-galactosidase (50 ng) expression vector was used as an internal control in the transfections to normalize for variations in transfection efficiency. The cells were transfected in triplicate for 6 hours, followed by incubation with retinoids for 36 hours, and the extracts were assayed for luciferase and β-galactosidase activities. The detailed experimental procedure for holoreceptor transactivations has been described in Heyman et al. and Allegretto et al., cited above. The results obtained in this assay are expressed in EC50 numbers, as they are also in the chimeric receptor transactivation assay. The Heyman et al. Cell 68, 397-406, Allegretto et al. J. Biol. Chem. 268, 26625-26633, and Mangelsdorf et al. The Retinoids: Biology, Chemistry and Medicine, pp 319-349, Raven Press Ltd., New York, are expressly incorporated herein by reference. The results of ligand binding assay are expressed in Kd numbers. (See Cheng et al. Biochemical Pharmacology Vol. 22 pp 3099-3108, expressly incorporated herein by reference.)

RARγ = target: T2, RARγ (Homo sapiens, UniProt P13631); experiment: Ligand binding assay, RARγ
T2 sequence (P13631 1-454): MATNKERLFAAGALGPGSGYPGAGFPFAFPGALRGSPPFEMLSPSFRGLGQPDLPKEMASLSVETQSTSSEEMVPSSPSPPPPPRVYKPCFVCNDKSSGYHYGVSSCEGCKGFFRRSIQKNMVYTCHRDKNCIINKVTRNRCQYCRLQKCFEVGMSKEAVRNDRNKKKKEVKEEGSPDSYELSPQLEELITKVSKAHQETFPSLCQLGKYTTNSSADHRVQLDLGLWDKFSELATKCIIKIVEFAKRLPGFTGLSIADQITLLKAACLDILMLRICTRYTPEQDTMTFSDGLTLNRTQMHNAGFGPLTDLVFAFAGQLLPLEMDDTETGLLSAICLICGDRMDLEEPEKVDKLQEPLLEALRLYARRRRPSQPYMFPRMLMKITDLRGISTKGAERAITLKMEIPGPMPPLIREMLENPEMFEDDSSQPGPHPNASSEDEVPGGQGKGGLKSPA
From the text: Other assays described below, measure the ability of the compounds of the present invention to bind to, and/or activate various retinoid receptor subtypes. When in these assays a compound binds to a given receptor subtype and activates the transcription of a reporter gene through that subtype, then the compound is considered an agonist of that receptor subtype. […] In the below described assays the ability of the compounds to bind to RARα, RARβ, RARγ, RXRα, RXRβ and […]. receptors, and the ability or inability of the compounds to activate transcription of a reporter gene through these receptor subtypes can be tested. A holoreceptor transactivation assay and a ligand binding assay which measure the antagonist/agonist like activity of the compounds of the invention, or their ability to bind to the several retinoid receptor subtypes, respectively, are described in published PCT Application No. […] A description of the holoreceptor transactivation assay is also provided below. […] Cell 68, 397-406, (1992). For RXRα and RXRγ transactivation assays, an RXR-responsive reporter plasmid CRBPII-tk-LUC (50 ng) along with the appropriate RXR expression vectors (10 ng) was used substantially as described by Heyman et al. above, and Allegretto et al. J. Biol. Chem. 268, 26625-26633. […] These reporters contain DRI elements from human CRBPII and certain DRI elements from promoter, respectively. (see Mangelsdorf et al. The Retinoids: Biology, Chemistry and Medicine, pp 319-349, Raven Press Ltd., New York and Heyman et al., cited above) (1, 8). A β-galactosidase (50 ng) expression vector was used as an internal control in the transfections to normalize for variations in transfection efficiency. The cells were transfected in triplicate for 6 hours, followed by incubation with retinoids for 36 hours, and the extracts were assayed for luciferase and β-galactosidase activities. The detailed experimental procedure for holoreceptor transactivations has been described in Heyman et al. and Allegretto et al., cited above. The results obtained in this assay are expressed in EC50 numbers, as they are also in the chimeric receptor transactivation assay. The Heyman et al. Cell 68, 397-406, Allegretto et al. J. Biol. Chem. 268, 26625-26633, and Mangelsdorf et al. The Retinoids: Biology, Chemistry and Medicine, pp 319-349, Raven Press Ltd., New York, are expressly incorporated herein by reference. The results of ligand binding assay are expressed in Kd numbers.

RARα = target: T3, RARα (Homo sapiens, UniProt P10276); experiment: Ligand binding assay, RARα
T3 sequence (P10276 1-462): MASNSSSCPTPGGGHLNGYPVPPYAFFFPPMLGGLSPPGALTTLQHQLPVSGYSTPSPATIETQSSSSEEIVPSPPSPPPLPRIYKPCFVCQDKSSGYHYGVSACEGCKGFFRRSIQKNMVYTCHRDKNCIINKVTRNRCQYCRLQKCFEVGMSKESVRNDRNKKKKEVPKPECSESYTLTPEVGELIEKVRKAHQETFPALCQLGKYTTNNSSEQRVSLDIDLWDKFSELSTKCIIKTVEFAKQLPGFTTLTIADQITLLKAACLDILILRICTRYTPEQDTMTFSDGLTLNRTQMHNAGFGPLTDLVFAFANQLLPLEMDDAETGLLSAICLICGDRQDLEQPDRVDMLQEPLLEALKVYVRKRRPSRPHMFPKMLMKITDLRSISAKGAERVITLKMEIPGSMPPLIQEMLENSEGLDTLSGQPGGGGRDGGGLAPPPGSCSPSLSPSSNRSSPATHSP
From the text: as §1, §2, §3

| Structure (SMILES) | IC50 (RARγ -VP-16) [nM] | Kd (RARβ) [nM] | Kd (RARγ) [nM] | Kd (RARα) [nM] |
| --- | --- | --- | --- | --- |
| CCOC(=O)c1ccc(C#C/C=C/C2C(c3ccc(C)cc3)=CCCC2(C)C)cc1 (racemic) [Compound 10, Ethyl (±)-(E)-4-(4-(2-(4-Methylphenyl)-4,4-dimethylcyclohexen-3-yl)but-3-en-1-yn-1-yl)benzoate] | 1 | – | – | – |
| Cc1ccc(C2=CCCC(C)(C)C2/C=C/C#Cc2ccc(C(=O)O)cc2)cc1 (racemic) [Compound 14, (±)-(E)-4-(4-(2-(4-Methylphenyl)-4,4-dimethylcyclohexen-3-yl)but-3-en-1-yn-1-yl)benzoic acid] | – | 24 | 98 | 454 |
| Cc1ccc(C2=C(/C=C/C#Cc3ccc(C(=O)O)cc3)C(C)(C)CCC2)cc1 [Compound 13, (E)-4-(4-(1-(4-Methylphenyl)-3,3-dimethylcyclohexen-2-yl)but-3-en-1-yn-1-yl)benzoic Acid] | – | 6 | 21 | 148 |
| CCc1ccc(C2=C(/C=C/C#Cc3ccc(C(=O)O)cc3)C(C)(C)CCC2)cc1 [Compound 15, (E)-4-(4-(1-(4-Ethylphenyl)-3,3-dimethylcyclohexen-2-2l)but-3-en-1-yn-1-yl)benzoic acid] | – | 4 | 36 | 136 |
| CC1(C)CCCC(c2ccc(C(C)(C)C)cc2)=C1/C=C/C#Cc1ccc(C(=O)O)cc1 [Compound 16, (E)-4-(4-(1-(4-tert-butylphenyl)-3,3-dimethylcyclohexen-2-yl)but-3-en-1-yn-1-yl)benzoic acid] | – | 13 | 333 | 875 |
| Cc1ccc(C2=CCC(C)(C)C=C2/C=C/C#Cc2ccc(C(=O)O)cc2)cc1 [Compound 24, (E)-4-(4-(2-(4-Methylphenyl)-5,5-dimethyl-1,3-cyclohexadien-3-yl)but-3-ene-1-yn-1-yl)benzoic Acid] | – | 48 | 33 | 134 |
